pEC50: −log10 of the molar value. Converted amounts (≈) assume the structure as drawn.
Experiments:
[1] = system: Cystic fibrosis transmembrane conductance regulator (Homo sapiens), P13569 [F508del]; assay: Potentiation of CFTR F508del mutant (unknown origin) expressed in CHO cells assessed as chloride transport by measuring membrane potential incubated for 5 to 30 mins in presence of forskolin by Quattro assay relative to PG-01; type: cell-based; parameters: concentration or dose not given beside the values; settings: time 5-30 min
Chain of Cystic fibrosis transmembrane conductance regulator (Homo sapiens), P13569 [F508del] (P13569 as listed by the source): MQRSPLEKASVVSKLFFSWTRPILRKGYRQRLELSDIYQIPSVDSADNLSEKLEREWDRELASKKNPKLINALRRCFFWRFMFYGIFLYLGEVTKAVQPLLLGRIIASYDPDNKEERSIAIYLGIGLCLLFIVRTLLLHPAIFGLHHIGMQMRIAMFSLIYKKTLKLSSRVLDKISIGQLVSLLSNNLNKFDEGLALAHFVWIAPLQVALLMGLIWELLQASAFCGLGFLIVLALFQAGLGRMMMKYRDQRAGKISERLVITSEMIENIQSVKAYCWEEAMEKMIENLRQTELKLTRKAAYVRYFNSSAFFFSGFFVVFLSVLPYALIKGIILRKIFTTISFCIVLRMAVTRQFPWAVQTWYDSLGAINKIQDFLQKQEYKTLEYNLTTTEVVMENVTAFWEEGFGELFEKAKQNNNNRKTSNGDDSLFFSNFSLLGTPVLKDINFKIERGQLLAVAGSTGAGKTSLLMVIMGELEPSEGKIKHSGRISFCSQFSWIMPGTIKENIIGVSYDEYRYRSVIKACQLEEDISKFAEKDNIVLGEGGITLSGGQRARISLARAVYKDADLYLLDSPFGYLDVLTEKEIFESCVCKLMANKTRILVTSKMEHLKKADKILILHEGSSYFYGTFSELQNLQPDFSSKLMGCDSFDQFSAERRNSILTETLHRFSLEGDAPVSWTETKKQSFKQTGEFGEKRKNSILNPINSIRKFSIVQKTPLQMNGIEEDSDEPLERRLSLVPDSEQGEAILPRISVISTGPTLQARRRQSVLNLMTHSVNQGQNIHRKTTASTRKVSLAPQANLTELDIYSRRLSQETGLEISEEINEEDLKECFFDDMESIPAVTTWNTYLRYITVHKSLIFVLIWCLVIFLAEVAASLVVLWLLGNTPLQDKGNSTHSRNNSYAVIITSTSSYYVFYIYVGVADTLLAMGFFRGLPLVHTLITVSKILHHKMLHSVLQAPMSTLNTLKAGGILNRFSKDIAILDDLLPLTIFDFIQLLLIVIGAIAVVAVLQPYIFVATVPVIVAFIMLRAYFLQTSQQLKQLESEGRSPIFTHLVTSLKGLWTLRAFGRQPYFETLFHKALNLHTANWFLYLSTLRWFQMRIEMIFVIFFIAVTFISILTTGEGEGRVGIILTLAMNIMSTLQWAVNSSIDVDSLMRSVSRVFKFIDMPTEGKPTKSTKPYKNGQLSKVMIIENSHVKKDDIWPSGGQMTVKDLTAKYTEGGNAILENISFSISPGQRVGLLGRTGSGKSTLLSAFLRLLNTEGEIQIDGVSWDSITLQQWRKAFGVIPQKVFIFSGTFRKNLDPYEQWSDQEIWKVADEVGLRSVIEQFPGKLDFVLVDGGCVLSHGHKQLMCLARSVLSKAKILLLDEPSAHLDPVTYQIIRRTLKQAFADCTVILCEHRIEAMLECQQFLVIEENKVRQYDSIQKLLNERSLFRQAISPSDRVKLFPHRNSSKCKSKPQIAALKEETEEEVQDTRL

[2] = target: T1, Cystic fibrosis transmembrane conductance regulator (Homo sapiens, UniProt P13569, F508DEL); assay: Potentiation of CFTR F508del mutant (unknown origin) expressed in CHO cells assessed as chloride transport by measuring membrane potential incubated for 5 to 30 mins in presence of forskolin by Quattro assay; type: cell-based
T1 sequence (P13569 as listed by the source): as above

[3] = Solubility of the compound at pH 6.8; type: physicochemical; settings: buffer
[4] = Unbound Cmax in Sprague-Dawley rat at 3 mg/kg, po and 1 mg/kg, iv measured upto 48 hrs by LC-MS/MS analysis; type: ADME, organism-based; settings: in vivo
[5] = Drug metabolism in Sprague-Dawley rat bile assessed as glutathione adduct M8 formation at 1 mg/kg, po after 24 hrs by LC MS/MS analysis; type: ADME, organism-based; settings: in vivo
[6] = Oral bioavailability in Sprague-Dawley rat at 3 mg/kg measured upto 48 hrs by LC-MS/MS analysis; type: ADME, organism-based; settings: in vivo
[7] = Volume of distribution in Sprague-Dawley rat at 3 mg/kg, po and 1 mg/kg, iv measured upto 48 hrs by LC-MS/MS analysis; type: ADME, organism-based; settings: in vivo
[8] = target: T1, Cystic fibrosis transmembrane conductance regulator; assay: Potentiation of CFTR F508del mutant (unknown origin) expressed in FRT cells assessed as chloride transport by measuring membrane potential in presence of forskolin; type: cell-based
[9] = system: Cystic fibrosis transmembrane conductance regulator (Homo sapiens), P13569 [F508del]; assay: Potentiation of CFTR F508 deletion mutant (unknown origin) expressed in HBE cells assessed as change in short circuit current in presence of forskolin and amiloride relative to PG-01; type: cell-based; settings: filed as activator
[10] = system: Cystic fibrosis transmembrane conductance regulator (Homo sapiens), P13569 [F508del]; assay: Potentiation of CFTR F508del mutant (unknown origin) expressed in FRT cells assessed as chloride transport by measuring membrane potential in presence of forskolin relative to PG-01; type: cell-based; settings: filed as activator
[11] = system: Cystic fibrosis transmembrane conductance regulator (Homo sapiens), P13569 [G551D]; assay: Potentiation of CFTR G551D mutant (unknown origin) expressed in FRT cells assessed as chloride transport by measuring membrane potential in presence of forskolin relative to PG-01; type: cell-based; settings: filed as activator
Chain of Cystic fibrosis transmembrane conductance regulator (Homo sapiens), P13569 [G551D] (P13569 whole entry G551D): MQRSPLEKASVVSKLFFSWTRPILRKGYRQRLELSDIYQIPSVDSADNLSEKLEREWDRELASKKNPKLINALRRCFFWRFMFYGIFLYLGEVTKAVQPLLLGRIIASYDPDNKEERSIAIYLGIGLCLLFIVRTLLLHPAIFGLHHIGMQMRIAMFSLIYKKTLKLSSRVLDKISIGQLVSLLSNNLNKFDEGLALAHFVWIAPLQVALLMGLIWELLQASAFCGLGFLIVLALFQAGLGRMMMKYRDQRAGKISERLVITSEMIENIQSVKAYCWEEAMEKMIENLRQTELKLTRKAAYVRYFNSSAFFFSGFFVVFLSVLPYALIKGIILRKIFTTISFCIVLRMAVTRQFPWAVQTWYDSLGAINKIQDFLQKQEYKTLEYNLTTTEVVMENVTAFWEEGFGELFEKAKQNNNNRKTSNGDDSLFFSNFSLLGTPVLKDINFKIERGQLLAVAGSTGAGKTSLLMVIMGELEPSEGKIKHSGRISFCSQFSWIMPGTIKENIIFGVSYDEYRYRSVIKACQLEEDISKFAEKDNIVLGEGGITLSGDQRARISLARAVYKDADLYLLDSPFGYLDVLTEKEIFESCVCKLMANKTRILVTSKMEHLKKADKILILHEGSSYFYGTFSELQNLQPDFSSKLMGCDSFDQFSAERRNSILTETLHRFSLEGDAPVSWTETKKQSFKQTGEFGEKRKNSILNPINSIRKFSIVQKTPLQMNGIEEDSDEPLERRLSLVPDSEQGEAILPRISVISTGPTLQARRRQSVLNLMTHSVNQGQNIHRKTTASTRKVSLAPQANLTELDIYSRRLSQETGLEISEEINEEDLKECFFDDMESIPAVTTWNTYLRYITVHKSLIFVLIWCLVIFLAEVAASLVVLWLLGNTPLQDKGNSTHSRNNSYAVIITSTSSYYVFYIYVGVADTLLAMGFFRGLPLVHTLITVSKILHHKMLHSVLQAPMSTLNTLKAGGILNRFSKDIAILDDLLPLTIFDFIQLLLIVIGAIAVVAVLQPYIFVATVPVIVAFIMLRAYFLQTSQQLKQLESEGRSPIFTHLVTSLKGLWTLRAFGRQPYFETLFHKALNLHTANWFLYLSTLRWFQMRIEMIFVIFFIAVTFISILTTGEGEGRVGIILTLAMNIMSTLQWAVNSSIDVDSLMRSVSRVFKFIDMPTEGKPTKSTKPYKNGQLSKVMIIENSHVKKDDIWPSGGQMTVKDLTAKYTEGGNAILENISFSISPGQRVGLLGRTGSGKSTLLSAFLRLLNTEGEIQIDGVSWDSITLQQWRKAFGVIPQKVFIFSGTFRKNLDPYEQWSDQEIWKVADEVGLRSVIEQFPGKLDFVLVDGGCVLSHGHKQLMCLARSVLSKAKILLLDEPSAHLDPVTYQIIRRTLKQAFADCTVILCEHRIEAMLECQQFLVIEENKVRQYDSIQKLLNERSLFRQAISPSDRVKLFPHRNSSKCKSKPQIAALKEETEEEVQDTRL

[12] = Drug metabolism in Sprague-Dawley rat bile assessed as glutathione adduct M9 formation at 1 mg/kg, po after 24 hrs by LC MS/MS analysis; type: ADME, organism-based; settings: in vivo
[13] = Toxicity in Wistar Han rat assessed as NOAEL; settings: in vivo, dose 10 mg/kg
[14] = Cmax in Sprague-Dawley rat at 3 mg/kg, po and 1 mg/kg, iv measured upto 48 hrs by LC-MS/MS analysis; type: ADME, organism-based; parameters: dose 3 mg/kg, time <=48; settings: in vivo
[15] = target: Cystic fibrosis transmembrane conductance regulator (Homo sapiens, UniProt P13569, G551D); assay: Potentiation of CFTR G551D mutant (unknown origin) expressed in FRT cells assessed as chloride transport by measuring membrane potential in presence of forskolin; type: cell-based
Chain of Cystic fibrosis transmembrane conductance regulator (Homo sapiens, UniProt P13569, G551D) (P13569 whole entry G551D): as above

[16] = target: T2, Cystic fibrosis transmembrane conductance regulator (Homo sapiens, UniProt P13569); assay: Potentiation of wild-type CFTR (unknown origin) expressed in FRT cells assessed as chloride transport by measuring membrane potential in presence of forskolin; type: cell-based
Target sequence in this assay (P13569 whole entry): as the sequence (P13569 whole entry G551D) above, with D551G counted along it

[17] = Clearance in Sprague-Dawley rat at 3 mg/kg, po and 1 mg/kg, iv measured upto 48 hrs by LC MS/MS analysis; type: ADME, organism-based; settings: in vivo
[18] = target: T2, Cystic fibrosis transmembrane conductance regulator; assay: Potentiation of wild-type CFTR (unknown origin) expressed in FRT cells assessed as chloride transport by measuring membrane potential in presence of forskolin relative to PG-01; type: cell-based; settings: filed as activator
Target sequence in this assay (P13569 whole entry, looked up): as the sequence (P13569 whole entry G551D) above, with D551G counted along it

[19] = Plasma Protein binding in human incubated for 4 hrs by equilibrium dialysis method; type: ADME, cell-free
[20] = target: T1, Cystic fibrosis transmembrane conductance regulator; assay: Potentiation of CFTR F508 deletion mutant (unknown origin) expressed in HBE cells assessed as change in short circuit current in presence of forskolin and amiloride; type: cell-based
[21] = Plasma Protein binding in Sprague-Dawley rat at 5 uM incubated for 4 hrs by rapid equilibrium dialysis; type: ADME, cell-free; settings: read-out: PPB (converted)
[22] = Mean residence time in Sprague-Dawley rat at 3 mg/kg, po and 1 mg/kg, iv measured upto 48 hrs by LC-MS/MS analysis; type: ADME, organism-based; settings: in vivo
[23] = Volume of distribution at steady state in Sprague-Dawley rat at 5 mg/kg, po or 0.5 mg/kg, iv measured upto 48 hrs by LC-MS/MS analysis; type: ADME, organism-based; settings: in vivo, read-out: Vdss
[24] = Clearance in Sprague-Dawley rat at 5 mg/kg, po or 0.5 mg/kg, iv measured upto 48 hrs by LC-MS/MS analysis; type: ADME, organism-based; settings: in vivo
[25] = target: T1, Cystic fibrosis transmembrane conductance regulator; assay: Potentiation of CFTR F508del mutant (unknown origin) expressed in CHO cells assessed as chloride transport by measuring membrane potential preincubated for 5 mins followed by forskolin addition by FLIPR assay; type: cell-based
[26] = Mean residence time in Sprague-Dawley rat at 5 mg/kg, po or 0.5 mg/kg, iv measured upto 48 hrs by LC-MS/MS analysis; type: ADME, organism-based; settings: in vivo
[27] = Oral bioavailability in Sprague-Dawley rat at 5 mg/kg measured upto 48 hrs by LC-MS/MS analysis; type: ADME, organism-based; settings: in vivo
[28] = system: Cystic fibrosis transmembrane conductance regulator (Homo sapiens), P13569 [F508del]; assay: Potentiation of CFTR F508del mutant (unknown origin) expressed in CHO cells assessed as chloride transport by measuring membrane potential preincubated for 5 mins followed by forskolin addition by FLIPR assay relative to PG-01; type: cell-based; settings: filed as activator

CNc1nc(C(=O)NCC(C)(O)C(F)(F)F)c(N)cc1C(F)(F)F (stereo in doubt; 30a) [listing 1 of 2 here]
Activity ([1]; filed as activator): 91%

CN(C)c1nc(C(=O)NCC(C)(O)C(F)(F)F)c(N)cc1C(F)(F)F (stereo in doubt; 31a) [listing 1 of 2 here]
pEC50 [2]: 7.70 | solubility [3]: 165 µg/mL (≈ 441 µM)

CNc1nc(C(=O)NCC(C)(O)C(F)(F)F)c(N)cc1C(F)(F)F (stereo in doubt; 30a) [listing 2 of 2 here]
pEC50 [2]: 6.56 | solubility [3]: 13 µg/mL (≈ 36.1 µM)

CN(C)C(=O)c1cc(-c2ccco2)c(C(F)(F)F)cc1N
Activity [1]: 37% | pEC50 [2]: 4.52

Nc1cc(C(F)(F)F)c(-c2ccco2)cc1C(=O)O
Activity ([1]; filed as activator): 63% | pEC50 [2]: 5.23

COC(=O)c1cc(C2CCCO2)c(C(F)(F)F)cc1N (racemic)
Activity ([1]; filed as activator): 90% | pEC50 [2]: 6.34 | solubility [3]: 6 µg/mL (≈ 20.7 µM)

C[C@](O)(CNC(=O)c1nc(Br)c(C(F)(F)F)cc1N)C(F)(F)F
fCmax [4]: 25 nM | Activity ([1]; filed as activator): 107% | Drug metabolism [5]: Metabolite_Detected | bioavailability [6]: 114% | pEC50 [2]: 7.82 | Vd [7]: 6.5 L/kg | pEC50 [8]: 7.74 | Activity [9]: 113% | Activity [10]: 106% | Activity [11]: 67% | Drug metabolism [12]: Metabolite_Detected | solubility [3]: 140 µg/mL (≈ 341 µM) | NOAEL [13]: < 10 mg/kg | Cmax [14]: 634 nM | pEC50 [15]: 6.82 | pEC50 [16]: 7.37 | clearance [17]: 17 mL/min/kg | Activity [18]: 140% | fraction unbound at 4 h ([19]; read-out: PPB (converted)): 0.025 | pEC50 [20]: 7.60 | fraction unbound at 4 h, 5 µM [21]: 0.031 | MRT [22]: 6.4 h

COC(=O)c1cc(-c2ncco2)c(C(F)(F)F)cc1N
Activity ([1]; filed as activator): 92% | pEC50 [2]: 6.62 | solubility [3]: 36 µg/mL (≈ 126 µM)

C[C@](O)(CNC(=O)c1nc(C(F)(F)F)c(C(F)(F)F)cc1N)C(F)(F)F
fCmax [4]: 11 nM | Activity ([1]; filed as activator): 113% | bioavailability [6]: 75% | pEC50 [2]: 8.05 | Vd [7]: 6.4 L/kg | solubility [3]: 82 µg/mL (≈ 205 µM) | Cmax [14]: 595 nM | clearance [17]: 15 mL/min/kg | PPB ([19]; 4 h): 98.6% | fraction unbound at 4 h, 5 µM [21]: 0.019 | MRT [22]: 7.2 h

C[C@@](O)(CNC(=O)c1nc(Br)c(C(F)(F)F)cc1N)C(F)(F)F
Activity ([1]; filed as activator): 91% | pEC50 [2]: 7.52 | solubility [3]: 16 µg/mL (≈ 39 µM)

COC(=O)c1cc(I)c(C(F)(F)F)cc1N
Activity ([1]; filed as activator): 104% | pEC50 [2]: 6.44 | solubility [3]: 2 µg/mL (≈ 5.8 µM)

COC(=O)c1ccc(C(F)(F)F)cc1N
Activity ([1]; filed as activator): 72% | pEC50 [2]: 5.42 | solubility [3]: < 1 µg/mL

CCc1nc(C(=O)NCC(C)(O)C(F)(F)F)c(N)cc1C(F)(F)F (stereo in doubt; 28b)
pEC50 [2]: 7.37

COC(=O)c1ccccc1N [METHYL ANTHRANILATE]
pEC50 [2]: 4.52

CCc1nc(C(=O)NCC(C)(O)C(F)(F)F)c(N)cc1C(F)(F)F (stereo in doubt; 28a) [listing 1 of 2 here]
Activity ([1]; filed as activator): 100%

COC(=O)c1cc(-c2ccco2)c(C(F)(F)F)cc1N
Activity ([1]; filed as activator): 93% | Vd [23]: 0.4 L/kg | pEC50 [2]: 7.11 | pEC50 [8]: 6.74 | Activity [10]: 100% | clearance [24]: 30 mL/min/kg | solubility [3]: < 1 µg/mL | pEC50 [16]: 4.52 | Activity [18]: 206% | pEC50 [25]: 6.04 | MRT [26]: 0.2 h | bioavailability [27]: 15% | fraction unbound at 4 h, 5 µM [21]: 0.005 | Activity [28]: 154%

CN(C)c1nc(C(=O)NCC(C)(O)C(F)(F)F)c(N)cc1C(F)(F)F (stereo in doubt; 31a) [listing 2 of 2 here]
Activity ([1]; filed as activator): 89%

COC(=O)c1cc(-c2cccnc2)c(C(F)(F)F)cc1N
Activity ([1]; filed as activator): 100% | pEC50 [2]: 6.48 | solubility [3]: 56 µg/mL (≈ 189 µM)

CNC(=O)c1nc(Br)c(C(F)(F)F)cc1N
Activity ([1]; filed as activator): 97% | pEC50 [2]: 6.60

CCc1nc(C(=O)NCC(C)(O)C(F)(F)F)c(N)cc1C(F)(F)F (stereo in doubt; 28a) [listing 2 of 2 here]
pEC50 [2]: 8.10 | solubility [3]: 91 µg/mL (≈ 253 µM)

— ChEMBL document CHEMBL5036320, “Discovery of Icenticaftor (QBW251), a Cystic Fibrosis Transmembrane Conductance Regulator Potentiator with Clinical Efficacy in Cystic Fibrosis and Chronic Obstructive Pulmonary Disease” (J Med Chem, 2021)
